Laboratory results published in ChEMBL document CHEMBL5696441 (Nat Chem Biol, 2011).

Columns and labels:
[1] = target: Serine/threonine-protein kinase TAO1 (Homo sapiens) (UniProt Q7L7X3); assay: Inhibition of TAOK1 (unknown origin) assessed as remaining activity at 1 uM by Kinome scan method relative to control
[2] = target: T1, Serine/threonine-protein kinase DCLK2 (Homo sapiens) (UniProt Q8N568); assay: Inhibition of human DCAMKL2 assessed as residual activity at 1 uM using RBER-CHKtide as substrate in presence of 33P-ATP by ProQinase assay relative to control
T1 sequence (whole entry): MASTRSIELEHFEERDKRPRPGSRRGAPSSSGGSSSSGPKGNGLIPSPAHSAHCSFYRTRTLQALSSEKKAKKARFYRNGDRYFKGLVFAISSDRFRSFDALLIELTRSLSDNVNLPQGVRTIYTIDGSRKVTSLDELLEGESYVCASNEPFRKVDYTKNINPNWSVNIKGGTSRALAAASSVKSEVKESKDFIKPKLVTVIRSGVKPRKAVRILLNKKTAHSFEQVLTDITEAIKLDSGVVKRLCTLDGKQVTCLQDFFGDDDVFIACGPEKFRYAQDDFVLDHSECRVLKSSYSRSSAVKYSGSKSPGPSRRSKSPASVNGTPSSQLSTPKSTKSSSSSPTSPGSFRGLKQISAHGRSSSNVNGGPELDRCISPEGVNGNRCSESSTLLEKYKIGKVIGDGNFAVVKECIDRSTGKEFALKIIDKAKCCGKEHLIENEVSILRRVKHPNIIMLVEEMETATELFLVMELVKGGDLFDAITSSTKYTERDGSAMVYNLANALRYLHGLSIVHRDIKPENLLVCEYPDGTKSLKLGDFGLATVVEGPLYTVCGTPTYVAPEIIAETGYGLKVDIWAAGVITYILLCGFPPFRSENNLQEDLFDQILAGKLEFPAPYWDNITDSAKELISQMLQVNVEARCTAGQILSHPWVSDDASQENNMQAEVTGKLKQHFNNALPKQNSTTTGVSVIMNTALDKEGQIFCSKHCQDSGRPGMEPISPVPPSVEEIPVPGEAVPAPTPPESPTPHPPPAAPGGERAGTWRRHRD

[3] = target: Serine/threonine-protein kinase haspin (Homo sapiens) (UniProt Q8TF76); assay: Inhibition of human GSG2 assessed as residual activity at 1 uM using histon H3 as substrate in presence of 33P-ATP by ProQinase assay relative to control
[4] = target: T2, Homeodomain-interacting protein kinase 4 (Homo sapiens) (UniProt Q8NE63); assay: Inhibition of human HIPK4 assessed as residual activity at 1 uM using RBER-IRStide as substrate in presence of 33P-ATP by ProQinase assay relative to control
T2 sequence (whole entry): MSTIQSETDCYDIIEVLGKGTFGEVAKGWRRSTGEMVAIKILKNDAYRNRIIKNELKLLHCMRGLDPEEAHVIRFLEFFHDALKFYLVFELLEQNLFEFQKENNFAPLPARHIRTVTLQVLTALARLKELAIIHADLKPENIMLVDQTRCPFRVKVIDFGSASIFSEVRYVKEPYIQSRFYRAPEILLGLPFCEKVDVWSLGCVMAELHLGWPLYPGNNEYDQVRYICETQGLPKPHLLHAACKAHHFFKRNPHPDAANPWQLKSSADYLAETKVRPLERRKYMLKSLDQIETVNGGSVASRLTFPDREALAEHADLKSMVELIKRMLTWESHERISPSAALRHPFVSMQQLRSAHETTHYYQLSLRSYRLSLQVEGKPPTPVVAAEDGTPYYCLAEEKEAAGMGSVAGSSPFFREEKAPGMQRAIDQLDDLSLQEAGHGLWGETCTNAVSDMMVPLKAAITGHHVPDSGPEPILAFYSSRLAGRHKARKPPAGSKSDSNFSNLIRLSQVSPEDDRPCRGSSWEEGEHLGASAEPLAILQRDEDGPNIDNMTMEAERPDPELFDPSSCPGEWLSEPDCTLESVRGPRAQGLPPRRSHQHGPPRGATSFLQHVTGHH

[5] = system: Hepatocyte growth factor receptor (Homo sapiens), P08581 [F1200I]; assay: Inhibition of human MET F1200I mutant assessed as residual activity at 1 uM using poly(Ala,Glu,Lys,Tyr)6:2:5:1 as substrate in presence of 33P-ATP by ProQinase assay relative to control
[6] = target: Misshapen-like kinase 1 (Homo sapiens) (UniProt Q8N4C8); assay: Inhibition of human MINK1 assessed as residual activity at 1 uM using RBER-CHKtide as substrate in presence of 33P-ATP by ProQinase assay relative to control
[7] = target: T3, Myosin light chain kinase (Homo sapiens) (UniProt Q32MK0); assay: Inhibition of human MYLK3 assessed as residual activity at 1 uM using RB-S6P as substrate in presence of 33P-ATP by ProQinase assay relative to control
T3 sequence (whole entry): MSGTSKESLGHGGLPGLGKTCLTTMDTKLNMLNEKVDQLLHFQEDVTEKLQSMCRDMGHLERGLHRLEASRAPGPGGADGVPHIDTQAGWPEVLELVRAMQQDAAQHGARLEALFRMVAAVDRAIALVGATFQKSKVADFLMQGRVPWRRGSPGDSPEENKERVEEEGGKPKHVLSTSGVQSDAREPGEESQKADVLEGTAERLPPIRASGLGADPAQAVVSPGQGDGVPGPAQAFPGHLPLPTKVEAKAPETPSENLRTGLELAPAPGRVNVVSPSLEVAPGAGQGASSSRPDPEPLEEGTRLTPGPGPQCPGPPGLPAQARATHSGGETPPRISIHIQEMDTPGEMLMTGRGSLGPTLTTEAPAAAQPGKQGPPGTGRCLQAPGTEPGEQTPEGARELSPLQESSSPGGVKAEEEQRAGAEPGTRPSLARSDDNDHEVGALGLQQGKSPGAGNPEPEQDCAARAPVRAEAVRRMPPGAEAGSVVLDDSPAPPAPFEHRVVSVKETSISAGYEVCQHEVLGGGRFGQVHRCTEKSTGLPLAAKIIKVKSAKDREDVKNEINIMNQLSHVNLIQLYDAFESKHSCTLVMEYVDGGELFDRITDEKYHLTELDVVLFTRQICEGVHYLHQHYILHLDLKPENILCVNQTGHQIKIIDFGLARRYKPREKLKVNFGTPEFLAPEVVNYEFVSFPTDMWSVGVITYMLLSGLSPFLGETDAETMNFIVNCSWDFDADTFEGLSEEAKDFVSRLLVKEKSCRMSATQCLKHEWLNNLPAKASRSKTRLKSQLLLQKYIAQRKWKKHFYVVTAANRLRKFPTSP

[8] = target: Serine/threonine-protein kinase D2 (Homo sapiens) (UniProt Q9BZL6); assay: Inhibition of human PRKD2 assessed as residual activity at 1 uM using RBER-CHKtide as substrate in presence of 33P-ATP by ProQinase assay relative to control
[9] = target: Testis-specific serine/threonine-protein kinase 2 (Homo sapiens) (UniProt Q96PF2); assay: Inhibition of human TSK2 assessed as residual activity at 1 uM using RBER-CHKtide as substrate in presence of 33P-ATP by ProQinase assay relative to control
Chain of Testis-specific serine/threonine-protein kinase 2 (Homo sapiens) (Q96PF2 whole entry): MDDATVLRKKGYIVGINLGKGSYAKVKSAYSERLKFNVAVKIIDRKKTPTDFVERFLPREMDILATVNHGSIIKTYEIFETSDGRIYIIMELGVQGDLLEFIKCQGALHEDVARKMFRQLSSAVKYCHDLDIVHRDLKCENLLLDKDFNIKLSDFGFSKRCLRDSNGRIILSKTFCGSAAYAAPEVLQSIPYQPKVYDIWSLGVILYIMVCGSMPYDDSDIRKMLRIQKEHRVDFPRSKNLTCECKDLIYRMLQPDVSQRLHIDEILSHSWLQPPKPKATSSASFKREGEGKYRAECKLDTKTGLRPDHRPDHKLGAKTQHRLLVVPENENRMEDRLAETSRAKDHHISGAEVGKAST

Chain of Serine/threonine-protein kinase haspin (Homo sapiens) (Q8TF76 whole entry): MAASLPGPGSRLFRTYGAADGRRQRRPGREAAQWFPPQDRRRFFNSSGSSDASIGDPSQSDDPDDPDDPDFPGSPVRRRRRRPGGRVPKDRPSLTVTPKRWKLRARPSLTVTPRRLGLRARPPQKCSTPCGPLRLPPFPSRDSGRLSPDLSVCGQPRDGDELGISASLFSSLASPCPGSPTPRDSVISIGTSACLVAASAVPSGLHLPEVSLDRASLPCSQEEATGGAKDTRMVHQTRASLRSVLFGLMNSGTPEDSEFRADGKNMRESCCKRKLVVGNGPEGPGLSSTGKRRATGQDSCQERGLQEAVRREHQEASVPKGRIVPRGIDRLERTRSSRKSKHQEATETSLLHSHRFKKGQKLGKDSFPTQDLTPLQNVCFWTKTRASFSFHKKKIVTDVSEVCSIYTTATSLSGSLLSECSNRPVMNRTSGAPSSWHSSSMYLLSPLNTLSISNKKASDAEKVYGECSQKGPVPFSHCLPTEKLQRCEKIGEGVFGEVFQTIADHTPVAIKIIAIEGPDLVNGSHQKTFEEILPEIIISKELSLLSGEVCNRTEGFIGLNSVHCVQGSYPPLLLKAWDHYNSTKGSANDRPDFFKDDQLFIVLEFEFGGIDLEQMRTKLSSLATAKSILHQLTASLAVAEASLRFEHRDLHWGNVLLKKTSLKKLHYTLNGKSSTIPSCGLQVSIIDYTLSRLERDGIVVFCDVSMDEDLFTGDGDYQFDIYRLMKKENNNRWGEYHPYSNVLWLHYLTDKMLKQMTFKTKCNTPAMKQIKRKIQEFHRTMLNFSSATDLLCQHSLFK
Chain of Serine/threonine-protein kinase D2 (Homo sapiens) (Q9BZL6 whole entry): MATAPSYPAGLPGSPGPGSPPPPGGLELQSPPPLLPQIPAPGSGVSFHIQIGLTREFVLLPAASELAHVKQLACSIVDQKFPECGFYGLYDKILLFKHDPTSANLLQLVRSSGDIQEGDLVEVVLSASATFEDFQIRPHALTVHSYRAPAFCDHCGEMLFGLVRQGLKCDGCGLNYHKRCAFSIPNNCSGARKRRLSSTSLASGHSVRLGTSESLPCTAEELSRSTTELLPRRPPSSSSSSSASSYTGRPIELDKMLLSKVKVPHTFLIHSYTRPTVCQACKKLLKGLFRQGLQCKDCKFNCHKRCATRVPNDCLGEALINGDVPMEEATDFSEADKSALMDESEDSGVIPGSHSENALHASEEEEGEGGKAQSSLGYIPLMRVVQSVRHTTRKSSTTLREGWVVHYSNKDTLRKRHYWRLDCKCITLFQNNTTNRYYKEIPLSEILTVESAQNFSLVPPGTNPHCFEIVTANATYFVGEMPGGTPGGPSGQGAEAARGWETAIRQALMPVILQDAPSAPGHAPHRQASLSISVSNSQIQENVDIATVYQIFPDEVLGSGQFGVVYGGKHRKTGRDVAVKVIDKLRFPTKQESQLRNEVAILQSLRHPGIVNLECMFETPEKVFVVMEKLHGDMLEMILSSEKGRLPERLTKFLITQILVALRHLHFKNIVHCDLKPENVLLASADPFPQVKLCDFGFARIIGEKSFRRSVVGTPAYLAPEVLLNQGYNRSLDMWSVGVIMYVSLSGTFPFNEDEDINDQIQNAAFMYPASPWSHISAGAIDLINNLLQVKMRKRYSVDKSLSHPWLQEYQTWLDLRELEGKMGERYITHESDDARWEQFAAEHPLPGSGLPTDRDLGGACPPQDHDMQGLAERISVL
Chain of Serine/threonine-protein kinase TAO1 (Homo sapiens) (Q7L7X3 whole entry): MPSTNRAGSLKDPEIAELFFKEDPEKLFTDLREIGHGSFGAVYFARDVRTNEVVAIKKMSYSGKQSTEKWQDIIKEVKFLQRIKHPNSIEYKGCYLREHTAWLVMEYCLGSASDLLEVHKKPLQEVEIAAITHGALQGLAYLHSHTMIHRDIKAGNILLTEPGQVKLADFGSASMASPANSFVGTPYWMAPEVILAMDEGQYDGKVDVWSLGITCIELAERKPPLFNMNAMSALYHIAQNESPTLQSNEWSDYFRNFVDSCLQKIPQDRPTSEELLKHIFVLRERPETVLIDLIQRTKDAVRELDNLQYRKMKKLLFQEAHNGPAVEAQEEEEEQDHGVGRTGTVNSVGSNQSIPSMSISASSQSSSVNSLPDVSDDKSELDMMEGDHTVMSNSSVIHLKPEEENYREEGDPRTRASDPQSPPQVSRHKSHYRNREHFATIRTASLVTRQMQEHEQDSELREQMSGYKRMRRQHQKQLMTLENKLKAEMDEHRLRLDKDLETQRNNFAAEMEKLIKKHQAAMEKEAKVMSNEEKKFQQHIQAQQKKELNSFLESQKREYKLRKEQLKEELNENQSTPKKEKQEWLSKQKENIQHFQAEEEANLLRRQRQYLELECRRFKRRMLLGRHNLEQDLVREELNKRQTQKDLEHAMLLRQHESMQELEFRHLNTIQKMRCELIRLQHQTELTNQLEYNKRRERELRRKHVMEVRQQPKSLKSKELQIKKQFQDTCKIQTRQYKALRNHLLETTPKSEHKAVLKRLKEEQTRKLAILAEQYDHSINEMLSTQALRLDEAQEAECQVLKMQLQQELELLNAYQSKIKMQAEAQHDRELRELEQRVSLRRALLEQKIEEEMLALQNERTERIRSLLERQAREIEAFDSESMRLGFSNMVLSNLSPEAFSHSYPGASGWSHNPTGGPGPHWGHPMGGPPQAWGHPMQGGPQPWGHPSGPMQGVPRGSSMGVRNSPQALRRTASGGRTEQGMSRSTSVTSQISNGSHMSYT
Chain of Misshapen-like kinase 1 (Homo sapiens) (Q8N4C8 whole entry, looked up): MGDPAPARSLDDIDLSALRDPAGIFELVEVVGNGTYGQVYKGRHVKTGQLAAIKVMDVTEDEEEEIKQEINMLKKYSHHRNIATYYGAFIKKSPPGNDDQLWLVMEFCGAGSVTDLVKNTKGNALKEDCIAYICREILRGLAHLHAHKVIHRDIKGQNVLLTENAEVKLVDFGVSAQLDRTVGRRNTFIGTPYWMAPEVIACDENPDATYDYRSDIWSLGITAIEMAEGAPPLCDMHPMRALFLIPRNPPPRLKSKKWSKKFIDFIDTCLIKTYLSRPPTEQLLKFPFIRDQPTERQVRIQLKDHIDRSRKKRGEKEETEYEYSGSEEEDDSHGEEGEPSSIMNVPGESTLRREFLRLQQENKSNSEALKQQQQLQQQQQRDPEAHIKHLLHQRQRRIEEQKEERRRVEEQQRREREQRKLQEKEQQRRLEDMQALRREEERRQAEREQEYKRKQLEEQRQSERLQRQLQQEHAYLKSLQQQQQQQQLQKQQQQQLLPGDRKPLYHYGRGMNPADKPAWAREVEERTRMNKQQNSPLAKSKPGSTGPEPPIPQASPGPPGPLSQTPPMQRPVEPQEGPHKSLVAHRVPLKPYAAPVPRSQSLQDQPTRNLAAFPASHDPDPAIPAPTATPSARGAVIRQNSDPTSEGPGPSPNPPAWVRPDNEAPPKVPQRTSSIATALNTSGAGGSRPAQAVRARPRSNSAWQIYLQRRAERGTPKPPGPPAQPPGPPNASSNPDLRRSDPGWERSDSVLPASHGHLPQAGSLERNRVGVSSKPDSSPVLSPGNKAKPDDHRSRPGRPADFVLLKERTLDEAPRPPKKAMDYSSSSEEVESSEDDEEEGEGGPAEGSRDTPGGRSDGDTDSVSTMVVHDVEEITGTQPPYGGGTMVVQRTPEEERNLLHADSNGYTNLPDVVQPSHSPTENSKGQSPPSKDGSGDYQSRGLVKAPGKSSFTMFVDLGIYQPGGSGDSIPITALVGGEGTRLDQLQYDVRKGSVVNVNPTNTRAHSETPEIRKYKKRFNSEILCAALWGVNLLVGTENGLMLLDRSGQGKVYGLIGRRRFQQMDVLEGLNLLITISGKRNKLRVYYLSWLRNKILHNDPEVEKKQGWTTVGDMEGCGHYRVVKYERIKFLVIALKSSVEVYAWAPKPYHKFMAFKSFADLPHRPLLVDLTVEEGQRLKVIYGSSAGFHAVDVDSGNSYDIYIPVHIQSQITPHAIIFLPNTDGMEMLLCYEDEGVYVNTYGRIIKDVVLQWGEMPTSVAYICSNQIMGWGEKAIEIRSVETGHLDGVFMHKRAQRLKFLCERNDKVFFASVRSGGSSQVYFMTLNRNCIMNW

## O=C1c2ccc(Nc3ccc(F)cc3F)cc2CCc2ccc(OC[C@H](O)CO)cc21 [Skepinone-L]
[1]
  Activity: 100%
[2]
  Activity: 83%
[3]
  Activity: 82%
[4]
  Activity: 116%
[5]
  Activity: 96%
[6]
  Activity: 94%
[7]
  Activity: 85%
[8]
  Activity: 85%
[9]
  Activity: 82%
